Tests used:
Experiment in all cases: biochemical
Parameters in all cases: DiscoverX KinomeScan competition binding assay across human kinases; per cent of control at 10 and 100 uM
[1] = target: ULK2 (Homo sapiens, UniProt Q8IYT8); conditions: competition binding, % of control; read-out: Percent Control (100 uM Levosimendan)
Method in brief: (§1)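 Binding is expressed as %control, normalised between positive and negative control signals. The compound (levosimendan) was tested at 10 μM and 100 μM in the DiscoverX KinomeScan competition binding format against human kinases.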

[2] = target: NEK9 (Homo sapiens, UniProt Q8TD19); conditions: competition binding, % of control; read-out: Percent Control (100 uM Levosimendan)
NEK9, sequence (Q8TD19 whole entry): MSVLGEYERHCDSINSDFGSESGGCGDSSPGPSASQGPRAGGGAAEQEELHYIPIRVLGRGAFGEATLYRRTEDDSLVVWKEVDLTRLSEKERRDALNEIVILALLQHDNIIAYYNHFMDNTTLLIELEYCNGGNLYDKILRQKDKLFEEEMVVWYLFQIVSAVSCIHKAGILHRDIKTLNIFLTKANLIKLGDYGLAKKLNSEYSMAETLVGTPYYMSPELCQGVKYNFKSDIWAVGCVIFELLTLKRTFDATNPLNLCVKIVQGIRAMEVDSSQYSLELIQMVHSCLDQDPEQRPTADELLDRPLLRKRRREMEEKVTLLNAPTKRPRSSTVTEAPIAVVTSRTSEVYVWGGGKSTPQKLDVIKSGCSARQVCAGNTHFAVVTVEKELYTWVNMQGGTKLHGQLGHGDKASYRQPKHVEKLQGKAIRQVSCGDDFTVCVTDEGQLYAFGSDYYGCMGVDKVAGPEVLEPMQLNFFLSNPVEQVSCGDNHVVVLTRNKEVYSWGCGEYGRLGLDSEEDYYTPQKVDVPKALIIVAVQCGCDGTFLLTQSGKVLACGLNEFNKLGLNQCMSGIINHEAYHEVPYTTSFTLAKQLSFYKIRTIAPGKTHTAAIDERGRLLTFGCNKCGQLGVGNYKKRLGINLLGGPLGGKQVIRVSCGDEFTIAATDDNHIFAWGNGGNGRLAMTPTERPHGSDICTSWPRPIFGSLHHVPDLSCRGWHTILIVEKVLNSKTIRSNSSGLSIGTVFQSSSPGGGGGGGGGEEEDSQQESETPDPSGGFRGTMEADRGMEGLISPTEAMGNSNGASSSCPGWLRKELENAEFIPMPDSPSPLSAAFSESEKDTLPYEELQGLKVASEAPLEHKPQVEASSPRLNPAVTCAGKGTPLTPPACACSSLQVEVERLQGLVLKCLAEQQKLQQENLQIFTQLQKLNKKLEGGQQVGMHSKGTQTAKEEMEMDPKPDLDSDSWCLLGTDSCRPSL
Method in brief: as §1

[3] = target: PHKG1 (Homo sapiens, UniProt Q16816); conditions: competition binding, % of control; read-out: Percent Control (100 uM Levosimendan)
PHKG1, sequence (Q16816 whole entry): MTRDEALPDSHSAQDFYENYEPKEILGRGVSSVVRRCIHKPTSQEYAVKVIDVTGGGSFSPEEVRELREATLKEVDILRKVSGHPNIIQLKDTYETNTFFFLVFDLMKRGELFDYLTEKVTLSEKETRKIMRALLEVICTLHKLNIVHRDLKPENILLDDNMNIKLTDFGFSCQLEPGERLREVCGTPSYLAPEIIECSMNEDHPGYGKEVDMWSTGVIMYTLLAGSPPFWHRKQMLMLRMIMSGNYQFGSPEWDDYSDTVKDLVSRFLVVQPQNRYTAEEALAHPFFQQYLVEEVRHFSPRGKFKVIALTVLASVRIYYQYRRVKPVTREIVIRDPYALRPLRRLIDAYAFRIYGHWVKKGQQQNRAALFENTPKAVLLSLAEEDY
Method in brief: as §1

[4] = target: EPHB3 (Homo sapiens, UniProt P54753); conditions: competition binding, % of control; read-out: Percent Control (100 uM Levosimendan)
Method in brief: as §1

[5] = target: MELK (Homo sapiens, UniProt Q14680); conditions: competition binding, % of control; read-out: Percent Control (100 uM Levosimendan)
MELK, sequence (Q14680 whole entry): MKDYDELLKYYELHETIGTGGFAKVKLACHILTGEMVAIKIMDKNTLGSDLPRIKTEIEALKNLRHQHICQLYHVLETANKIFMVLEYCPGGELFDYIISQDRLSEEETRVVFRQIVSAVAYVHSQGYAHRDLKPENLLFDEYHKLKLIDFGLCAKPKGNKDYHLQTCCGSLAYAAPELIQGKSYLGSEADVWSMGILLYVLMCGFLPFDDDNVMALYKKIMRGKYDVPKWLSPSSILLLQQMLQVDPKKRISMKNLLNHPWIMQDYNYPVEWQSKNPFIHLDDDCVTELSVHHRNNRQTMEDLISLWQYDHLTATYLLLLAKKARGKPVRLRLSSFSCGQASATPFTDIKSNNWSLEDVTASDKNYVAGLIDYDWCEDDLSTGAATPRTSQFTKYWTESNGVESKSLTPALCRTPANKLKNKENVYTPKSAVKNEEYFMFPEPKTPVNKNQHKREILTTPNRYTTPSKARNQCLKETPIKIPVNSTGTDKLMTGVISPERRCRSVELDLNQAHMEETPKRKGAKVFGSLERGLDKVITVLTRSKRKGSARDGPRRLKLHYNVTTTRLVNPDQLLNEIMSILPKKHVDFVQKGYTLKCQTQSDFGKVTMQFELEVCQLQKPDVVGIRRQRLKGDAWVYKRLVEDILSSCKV
Method in brief: as §1

[6] = target: GRK7 (Homo sapiens, UniProt Q8WTQ7); conditions: competition binding, % of control; read-out: Percent Control (100 uM Levosimendan)
Method in brief: as §1

[7] = target: CDK5 (Homo sapiens, UniProt Q00535); conditions: competition binding, % of control; read-out: Percent Control (100 uM Levosimendan)
Method in brief: as §1

[8] = target: BRAF (Homo sapiens, UniProt P15056); conditions: competition binding, % of control; read-out: Percent Control (100 uM Levosimendan)
Method in brief: as §1

[9] = target: IRAK1 (Homo sapiens, UniProt P51617); conditions: competition binding, % of control; read-out: Percent Control (100 uM Levosimendan)
IRAK1, sequence (P51617 whole entry): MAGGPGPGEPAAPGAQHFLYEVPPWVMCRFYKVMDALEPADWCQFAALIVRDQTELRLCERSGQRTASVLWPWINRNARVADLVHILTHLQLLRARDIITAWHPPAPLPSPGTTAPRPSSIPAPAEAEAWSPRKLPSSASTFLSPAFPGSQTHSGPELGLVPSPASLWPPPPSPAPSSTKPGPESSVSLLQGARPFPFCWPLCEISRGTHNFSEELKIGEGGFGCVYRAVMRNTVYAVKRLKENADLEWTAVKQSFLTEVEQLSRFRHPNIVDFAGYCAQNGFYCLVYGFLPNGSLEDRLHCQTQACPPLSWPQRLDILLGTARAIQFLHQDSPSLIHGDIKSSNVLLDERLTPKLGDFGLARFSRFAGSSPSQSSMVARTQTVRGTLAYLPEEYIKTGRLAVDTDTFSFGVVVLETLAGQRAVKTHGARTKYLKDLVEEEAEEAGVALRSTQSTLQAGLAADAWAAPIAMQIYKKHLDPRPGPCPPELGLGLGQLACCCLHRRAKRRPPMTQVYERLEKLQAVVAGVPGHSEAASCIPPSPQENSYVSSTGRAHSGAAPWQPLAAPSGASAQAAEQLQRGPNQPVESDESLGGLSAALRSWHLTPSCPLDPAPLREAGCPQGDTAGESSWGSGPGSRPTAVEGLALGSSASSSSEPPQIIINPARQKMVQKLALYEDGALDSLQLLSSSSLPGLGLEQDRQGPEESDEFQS
Method in brief: as §1

[10] = target: PAK1 (Homo sapiens, UniProt Q13153); conditions: competition binding, % of control; read-out: Percent Control (100 uM Levosimendan)
Method in brief: as §1

[11] = target: T1, TRKA (Homo sapiens, UniProt P04629); conditions: competition binding, % of control; read-out: Percent Control (100 uM Levosimendan)
T1 construct: gene NTRK1
Method in brief: as §1

[12] = target: ACVR2A (Homo sapiens, UniProt P27037); conditions: competition binding, % of control
ACVR2A, sequence (P27037 whole entry): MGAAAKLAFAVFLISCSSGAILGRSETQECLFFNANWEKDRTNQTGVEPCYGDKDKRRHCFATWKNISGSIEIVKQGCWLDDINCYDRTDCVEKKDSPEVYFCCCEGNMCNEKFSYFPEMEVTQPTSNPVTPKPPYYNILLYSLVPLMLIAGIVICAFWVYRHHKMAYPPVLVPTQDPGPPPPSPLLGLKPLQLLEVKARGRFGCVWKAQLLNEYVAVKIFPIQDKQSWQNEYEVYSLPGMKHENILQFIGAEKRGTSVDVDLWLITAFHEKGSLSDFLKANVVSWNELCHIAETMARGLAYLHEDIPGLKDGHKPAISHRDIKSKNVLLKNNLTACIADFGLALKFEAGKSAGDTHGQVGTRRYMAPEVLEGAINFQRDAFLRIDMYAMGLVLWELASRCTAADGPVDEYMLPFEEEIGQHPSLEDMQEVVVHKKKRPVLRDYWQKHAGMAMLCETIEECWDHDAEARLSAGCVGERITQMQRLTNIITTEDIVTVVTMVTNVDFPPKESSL
Method in brief: as §1

[13] = target: T2, IKK-epsilon (Homo sapiens, UniProt Q14164); conditions: competition binding, % of control; read-out: Percent Control (100 uM Levosimendan)
T2 construct: gene IKBKE
T2 sequence (Q14164 whole entry): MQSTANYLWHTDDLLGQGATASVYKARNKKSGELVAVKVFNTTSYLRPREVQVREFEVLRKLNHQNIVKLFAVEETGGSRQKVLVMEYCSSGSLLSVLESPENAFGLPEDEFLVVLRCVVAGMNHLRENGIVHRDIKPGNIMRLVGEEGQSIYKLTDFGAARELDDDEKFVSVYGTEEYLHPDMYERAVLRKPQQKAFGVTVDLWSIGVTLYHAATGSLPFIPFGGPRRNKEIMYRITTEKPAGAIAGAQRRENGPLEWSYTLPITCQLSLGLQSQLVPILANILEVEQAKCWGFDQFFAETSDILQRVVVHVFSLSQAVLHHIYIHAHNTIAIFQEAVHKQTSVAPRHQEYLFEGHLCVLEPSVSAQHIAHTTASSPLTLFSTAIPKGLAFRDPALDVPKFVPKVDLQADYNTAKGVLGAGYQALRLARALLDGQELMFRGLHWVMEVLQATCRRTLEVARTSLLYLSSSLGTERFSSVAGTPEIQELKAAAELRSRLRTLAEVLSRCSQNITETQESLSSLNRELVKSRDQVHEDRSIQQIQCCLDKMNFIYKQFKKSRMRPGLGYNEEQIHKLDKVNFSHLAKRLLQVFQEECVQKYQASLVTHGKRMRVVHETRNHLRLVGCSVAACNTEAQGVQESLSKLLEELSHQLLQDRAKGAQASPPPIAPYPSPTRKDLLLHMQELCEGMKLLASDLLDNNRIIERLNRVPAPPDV
Method in brief: as §1

[14] = target: WEE2 (Homo sapiens, UniProt P0C1S8); conditions: competition binding, % of control; read-out: Percent Control (100 uM Levosimendan)
Method in brief: as §1

[15] = target: T3, PCTK1 (Homo sapiens, UniProt Q00536); conditions: competition binding, % of control; read-out: Percent Control (100 uM Levosimendan)
T3 construct: gene CDK16
T3 sequence (Q00536 whole entry): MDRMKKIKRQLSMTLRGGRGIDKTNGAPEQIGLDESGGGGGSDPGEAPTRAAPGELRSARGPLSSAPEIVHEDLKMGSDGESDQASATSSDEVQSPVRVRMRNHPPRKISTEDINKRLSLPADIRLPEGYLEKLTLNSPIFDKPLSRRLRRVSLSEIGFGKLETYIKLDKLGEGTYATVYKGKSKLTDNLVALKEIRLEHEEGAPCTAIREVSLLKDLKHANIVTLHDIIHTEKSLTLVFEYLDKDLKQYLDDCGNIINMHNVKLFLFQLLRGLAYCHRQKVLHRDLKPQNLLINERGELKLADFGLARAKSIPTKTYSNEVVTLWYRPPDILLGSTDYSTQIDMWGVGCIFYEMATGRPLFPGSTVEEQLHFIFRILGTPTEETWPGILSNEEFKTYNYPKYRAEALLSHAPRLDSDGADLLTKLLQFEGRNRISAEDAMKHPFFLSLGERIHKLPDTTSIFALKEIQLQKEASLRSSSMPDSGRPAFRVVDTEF
Method in brief: as §1

[16] = target: T4, ABL1(Q252H)-nonphosphorylated (Homo sapiens, UniProt P00519, Q252H); conditions: competition binding, % of control; read-out: Percent Control (100 uM Levosimendan)
T4 construct: nonphosphorylated
Method in brief: as §1

[17] = target: BRSK1 (Homo sapiens, UniProt Q8TDC3); conditions: competition binding, % of control; read-out: Percent Control (100 uM Levosimendan)
Method in brief: as §1

[18] = target: TAOK3 (Homo sapiens, UniProt Q9H2K8); conditions: competition binding, % of control; read-out: Percent Control (100 uM Levosimendan)
Method in brief: as §1

[19] = target: PIP5K1A (Homo sapiens, UniProt Q99755); conditions: competition binding, % of control
PIP5K1A, sequence (Q99755 whole entry): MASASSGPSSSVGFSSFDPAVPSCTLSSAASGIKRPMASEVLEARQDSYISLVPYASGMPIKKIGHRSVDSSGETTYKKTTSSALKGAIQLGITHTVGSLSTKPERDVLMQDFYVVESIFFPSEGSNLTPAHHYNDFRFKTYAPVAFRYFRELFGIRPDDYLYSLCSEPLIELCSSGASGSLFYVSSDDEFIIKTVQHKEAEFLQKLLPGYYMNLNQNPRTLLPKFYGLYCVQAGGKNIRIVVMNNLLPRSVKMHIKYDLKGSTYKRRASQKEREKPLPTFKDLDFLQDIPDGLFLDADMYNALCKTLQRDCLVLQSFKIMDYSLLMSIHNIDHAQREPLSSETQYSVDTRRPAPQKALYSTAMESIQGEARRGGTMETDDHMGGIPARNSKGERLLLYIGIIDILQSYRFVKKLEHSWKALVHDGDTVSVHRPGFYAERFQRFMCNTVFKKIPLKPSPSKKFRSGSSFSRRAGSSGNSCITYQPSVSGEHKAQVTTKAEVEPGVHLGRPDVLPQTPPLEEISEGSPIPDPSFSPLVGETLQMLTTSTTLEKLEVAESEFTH
Method in brief: as §1

[20] = read-out: Percent Control (10 uM Levosimendan)
[21] = read-out: Percent Control (100 uM Levosimendan)

remaining binding at 100 µM [1]: 56% | remaining binding at 100 µM [3]: 89% | remaining binding at 100 µM [4]: 96% | remaining binding at 100 µM [5]: 100% | remaining binding at 100 µM [6]: 100% | remaining binding at 100 µM [7]: 100% | remaining binding at 100 µM [8]: 81% | remaining binding at 100 µM [9]: 61% | remaining binding at 100 µM [10]: 73% | remaining binding at 100 µM [11]: 65% | remaining binding at 10 µM [12, 20]: 100% | remaining binding at 100 µM [12, 21]: 46% | remaining binding at 100 µM [13]: 93% | remaining binding at 100 µM [14]: 76% | remaining binding at 100 µM [15]: 88% | remaining binding at 100 µM [16]: 61% | remaining binding at 100 µM [17]: 100% | remaining binding at 100 µM [18]: 100% | remaining binding at 10 µM [19, 20]: 22% | remaining binding at 100 µM [19, 21]: 6.2%
SMILES: C[C@@H]1CC(=O)NN=C1c1ccc(NN=C(C#N)C#N)cc1 [levosimendan]
remaining binding at 100 µM [2]: 56%

— publication PMC6576746, “Rational discovery of dual-indication multi-target PDE/Kinase inhibitor for precision anti-cancer therapy using structural systems pharmacology” (PLoS Computational Biology, 2019)
